Measured values as given in patent US11324821B2, “Triterpene saponin analogues” (ADJUVANCE TECHNOLOGIES, INC., priority 2017, dated 2022).
Several values for one entry are separate records, joined by “and”; a condition that tells them apart may be missing. Equal values may be shown once.

Experiments:
Format in all cases: in vivo, mice
[1] = system: GB208_1; experiment: INFγ ELISPOT, total splenocytes, responses to GB208_1; conditions: re-stimulation GB208_1 10 μg/ml, per mouse
Method: (§1) The impact of synthetic TQL-1055 (Compound I-4) on CD4 and CD8 T cell responses to peptides was tested in mice as a single adjuvant and in combination with Genocea Biosciences GEN-AS2 adjuvant and sGenocea Biosciences GEN-AS3 adjuvant according to the plan in the table below. The GEN-AS2 and GEN-AS3 adjuvant are TLR agonist-based adjuvant systems. Specific peptides tested include Genocea synthetic long peptides (SLPs) GB208_1, GB208_4, GB208_8, which are tumor-specific T cell antigens identified by neo-antigen screening, however the results are expected to replicate to other types of peptides. Combinations including an adjuvant composition with the SLPs were administered to mice via s.c. scruff according to the plan below. Injections were administered to groups according to the plan in the table below. Responses in mice were measured seven (7) or fourteen (14) days after the final injection.
(§2) T cell responses were measured by the following ELISPOT analyses: • 1. Total splenocytes: • a. Combined responses to GB208_1, _4, _8; re-stimulation with overlapping peptides (OLPs) at 10 μg/ml; • b. Responses to GB208_1; re-stimulation GB208_1 at 10 μg/ml; • c. Responses to GB208_4; re-stimulation GB208_4 at 10 μg/ml; • d. Responses to GB208_8; re-stimulation GB208_8 at 10 μg/ml; • 2. CD4 enriched: combined responses to GB208_1, _4, _8; re-stimulation with overlapping peptides at 20 μg/ml; and • 3. CD8 enriched: combined responses to GB208_1, _4, _8; re-stimulation with overlapping peptides at 20 μg/ml. Specific resulting data is shown in FIGS. 2-8 and in the tables below.
(§3) The values in Tables 3a-f results are spot forming units per 800,000 cells. A value of 2000 was used if spots exceeded the upper limit of detection. All groups had n=5, except groups 1, 2, and 3, which had four mice in each group.

[2] = system: GB208_4; experiment: INFγ ELISPOT, total splenocytes, responses to GB208_4; conditions: re-stimulation GB208_4 10 μg/ml, per mouse
Method: as §1, §2, §3

[3] = system: GB208_8; experiment: INFγ ELISPOT, total splenocytes, responses to GB208_8; conditions: re-stimulation GB208_8 10 μg/ml, per mouse
Method: as §1, §2, §3

[4] = system: GB208_1, _4, _8; experiment: INFγ ELISPOT, total splenocytes, combined responses to GB208_1, _4, _8 (overlapping peptides); conditions: re-stimulation OLPs 10 μg/ml, per mouse
Method: as §1, §2, §3

[5] = system: CD4 enriched; experiment: ELISPOT, CD4 enriched cells, combined responses to GB208_1, _4, _8; conditions: re-stimulation overlapping peptides 20 μg/ml
Method: as §1, §2
(§4) The values in Tables 3g-h results are spot forming units per 500,000 cells. A value of 2000 was used if spots exceeded the upper limit of detection.

[6] = system: CD8 enriched; experiment: ELISPOT, CD8 enriched cells, combined responses to GB208_1, _4, _8; conditions: re-stimulation overlapping peptides 20 μg/ml
Method: as §1, §2, §4

[7] = system: GB208_1, _4, _8; experiment: Endpoint titer, total IgG response to GB208_1, _4, _8; conditions: FIG. 7, total IgG endpoint titer
Method: FIG. 7 depicts data showing enpoint titer data for total IgG response to GB208_1, _4, _8 for each group tested in Example 2.
as §1

[8] = Group 2: no antigen, 50 μg TQL-1055, days 0, 7
[9] = Group 5: 150 μg SLPs + 10 μg TQL-1055, days 0, 7
[10] = Group 6: 150 μg SLPs + 25 μg TQL-1055, days 0, 7
[11] = Group 7: 150 μg SLPs + 50 μg TQL-1055, days 0, 7
[12] = Group 8: 150 μg SLPs + 100 μg TQL-1055, days 0, 7
[13] = Group 11: 150 μg SLPs + 50 μg TQL-1055, days 0, 14

CC1O[C@@H](OC2C(O)[C@@H](NC(=O)CCCCCCCCCCC(=O)O)C(CO)O[C@H]2OC(=O)[C@]23CCC(C)(C)CC2C2=CCC4C5(C)CC[C@H](O)C(C)(C=O)C5CCC4(C)[C@]2(C)CC3O)C(O)C(O)[C@H]1O[C@@H]1OC[C@@H](O)C(O)C1O (stereo partly shown) [TQL-1055]
SLP1-specific INFγ responses in splenocytes [1, 8]: 0 spot forming units per 800,000 cells
SLP1-specific INFγ responses in splenocytes [1, 9]: 0 spot forming units per 800,000 cells (2×) and 4 spot forming units per 800,000 cells and 11 spot forming units per 800,000 cells and 5 spot forming units per 800,000 cells
SLP1-specific INFγ responses in splenocytes [1, 10]: 3 spot forming units per 800,000 cells and 4 spot forming units per 800,000 cells and 25 spot forming units per 800,000 cells and 12 spot forming units per 800,000 cells and 30 spot forming units per 800,000 cells
SLP1-specific INFγ responses in splenocytes [1, 11]: 3 spot forming units per 800,000 cells and 13 spot forming units per 800,000 cells and 4 spot forming units per 800,000 cells and 18 spot forming units per 800,000 cells and 25 spot forming units per 800,000 cells
SLP1-specific INFγ responses in splenocytes [1, 12]: 0 spot forming units per 800,000 cells and 5 spot forming units per 800,000 cells and 7 spot forming units per 800,000 cells and 29 spot forming units per 800,000 cells and 3 spot forming units per 800,000 cells
SLP1-specific INFγ responses in splenocytes [1, 13]: 3 spot forming units per 800,000 cells (2×) and 20 spot forming units per 800,000 cells and 94 spot forming units per 800,000 cells and 4 spot forming units per 800,000 cells
SLP4-specific INFγ responses in splenocytes [2, 8]: 0 spot forming units per 800,000 cells
SLP4-specific INFγ responses in splenocytes [2, 9]: 31 spot forming units per 800,000 cells and 135 spot forming units per 800,000 cells and 21 spot forming units per 800,000 cells and 183 spot forming units per 800,000 cells and 72 spot forming units per 800,000 cells
SLP4-specific INFγ responses in splenocytes [2, 10]: 102 spot forming units per 800,000 cells and 70 spot forming units per 800,000 cells and 431 spot forming units per 800,000 cells and 22 spot forming units per 800,000 cells and 169 spot forming units per 800,000 cells
SLP4-specific INFγ responses in splenocytes [2, 11]: 68 spot forming units per 800,000 cells and 23 spot forming units per 800,000 cells and 142 spot forming units per 800,000 cells and 93 spot forming units per 800,000 cells and 42 spot forming units per 800,000 cells
SLP4-specific INFγ responses in splenocytes [2, 12]: 30 spot forming units per 800,000 cells and 37 spot forming units per 800,000 cells and 19 spot forming units per 800,000 cells and 76 spot forming units per 800,000 cells and 78 spot forming units per 800,000 cells
SLP4-specific INFγ responses in splenocytes [2, 13]: 43 spot forming units per 800,000 cells and 96 spot forming units per 800,000 cells and 31 spot forming units per 800,000 cells and 258 spot forming units per 800,000 cells and 79 spot forming units per 800,000 cells
SLP8-specific INFγ responses in splenocytes [3, 8]: 0 spot forming units per 800,000 cells (3×) and 2 spot forming units per 800,000 cells
SLP8-specific INFγ responses in splenocytes [3, 9]: 0 spot forming units per 800,000 cells (2×) and 13 spot forming units per 800,000 cells and 15 spot forming units per 800,000 cells and 16 spot forming units per 800,000 cells
SLP8-specific INFγ responses in splenocytes [3, 10]: 21 spot forming units per 800,000 cells (2×) and 5 spot forming units per 800,000 cells and 53 spot forming units per 800,000 cells and 3 spot forming units per 800,000 cells
SLP8-specific INFγ responses in splenocytes [3, 11]: 29 spot forming units per 800,000 cells and 5 spot forming units per 800,000 cells and 55 spot forming units per 800,000 cells and 286 spot forming units per 800,000 cells and 20 spot forming units per 800,000 cells
SLP8-specific INFγ responses in splenocytes [3, 12]: 15 spot forming units per 800,000 cells and 0 spot forming units per 800,000 cells and 2 spot forming units per 800,000 cells and 29 spot forming units per 800,000 cells and 4 spot forming units per 800,000 cells
SLP8-specific INFγ responses in splenocytes [3, 13]: 59 spot forming units per 800,000 cells and 33 spot forming units per 800,000 cells and 93 spot forming units per 800,000 cells and 164 spot forming units per 800,000 cells and 136 spot forming units per 800,000 cells
INFγ responses in splenocytes to SLPs 1, 4, 8 [4, 8]: 0.5 spot forming units per 800,000 cells (2×) and 2.5 spot forming units per 800,000 cells and 2 spot forming units per 800,000 cells
INFγ responses in splenocytes to SLPs 1, 4, 8 [4, 9]: 12.5 spot forming units per 800,000 cells and 20 spot forming units per 800,000 cells and 11 spot forming units per 800,000 cells and 115 spot forming units per 800,000 cells and 53 spot forming units per 800,000 cells
INFγ responses in splenocytes to SLPs 1, 4, 8 [4, 10]: 104.5 spot forming units per 800,000 cells and 39 spot forming units per 800,000 cells and 338 spot forming units per 800,000 cells and 12.5 spot forming units per 800,000 cells and 167.5 spot forming units per 800,000 cells
INFγ responses in splenocytes to SLPs 1, 4, 8 [4, 11]: 56 spot forming units per 800,000 cells and 32 spot forming units per 800,000 cells and 138 spot forming units per 800,000 cells and 139 spot forming units per 800,000 cells and 59.5 spot forming units per 800,000 cells
INFγ responses in splenocytes to SLPs 1, 4, 8 [4, 12]: 42.5 spot forming units per 800,000 cells and 22 spot forming units per 800,000 cells and 17 spot forming units per 800,000 cells and 74.5 spot forming units per 800,000 cells and 73 spot forming units per 800,000 cells
INFγ responses in splenocytes to SLPs 1, 4, 8 [4, 13]: 70 spot forming units per 800,000 cells and 85 spot forming units per 800,000 cells and 32.5 spot forming units per 800,000 cells and 319.5 spot forming units per 800,000 cells and 112 spot forming units per 800,000 cells
CD4 Responses, OLP pool SLP 1, 4, 8 [5, 8]: 0 spot forming units per 500,000 cells
CD4 Responses, OLP pool SLP 1, 4, 8 [5, 9]: 48.5 spot forming units per 500,000 cells
CD4 Responses, OLP pool SLP 1, 4, 8 [5, 10]: 149.5 spot forming units per 500,000 cells
CD4 Responses, OLP pool SLP 1, 4, 8 [5, 11]: 88.5 spot forming units per 500,000 cells
CD4 Responses, OLP pool SLP 1, 4, 8 [5, 12]: 28.5 spot forming units per 500,000 cells
CD4 Responses, OLP pool SLP 1, 4, 8 [5, 13]: 79 spot forming units per 500,000 cells
CD8 Responses, OLP pool SLP 1, 4, 8 [6, 8]: 2.5 spot forming units per 500,000 cells
CD8 Responses, OLP pool SLP 1, 4, 8 [6, 9]: 6.5 spot forming units per 500,000 cells
CD8 Responses, OLP pool SLP 1, 4, 8 [6, 10]: 5 spot forming units per 500,000 cells
CD8 Responses, OLP pool SLP 1, 4, 8 [6, 11]: 5.5 spot forming units per 500,000 cells
CD8 Responses, OLP pool SLP 1, 4, 8 [6, 12]: 6.5 spot forming units per 500,000 cells
CD8 Responses, OLP pool SLP 1, 4, 8 [6, 13]: 3.5 spot forming units per 500,000 cells
antibody response for antibodies specific to GB208_1, _4, and _8 compared with GEN-AS3 [7]: in line with or better than GEN-AS3
